# Source: patent US20100216751A1 (priority 2007, published 2010)
# Structures can show the parent of a compound that is named as a salt.
# Assay: Solubility of bevirimat and bevirimat dimeglumine in single vehicles
# Conditions: in 100% water, 100% saline, 100% dextrose, 100% PEG 400, and 25% Poloxamer 188
smiles,measurement,value
"C=C(C)[C@@H]1CC[C@]2(C(=O)O)CC[C@]3(C)[C@H](CC[C@@H]4[C@@]5(C)CC[C@H](OC(=O)CC(C)(C)C(=O)O)C(C)(C)[C@@H]5CC[C@]43C)[C@@H]12 [Bevirimat dimeglumine, di-N-methylglucamine salt of 3-O-(3′,3′-dimethylsuccinyl)betulinic acid]",solubility (in words),limited solubility
